Reference: ChEMBL document CHEMBL1150788, “In vitro susceptibility of Sporothrix schenckii to six antifungal agents determined using three different methods” (2007)

Experiments:
Type in all cases: functional
Sporothrix schenckii [1] = experiment: Antifungal activity against Sporothrix schenckii P25013 isolate from cutaneous-lymphatic sporotrichosis patient after 72 hrs by ATB Fungus 2 method
Sporothrix schenckii [2] = experiment: Antifungal activity against Sporothrix schenckii MRSS4 isolate from cutaneous-lymphatic sporotrichosis patient after 72 hrs by modified NCCLS M38-A method
Pichia kudriavzevii [3] = experiment: Antifungal activity against Candida krusei ATCC 6258 […] after 72 hrs by ATB Fungus 2 method; settings: ATCC 6258, 72 h
Sporothrix schenckii [4] = experiment: Antifungal activity against Sporothrix schenckii PJRC002 isolate from cutaneous-lymphatic sporotrichosis patient after 72 hrs by modified NCCLS M38-A method
Sporothrix schenckii [5] = experiment: Antifungal activity against Sporothrix schenckii P26187 isolate from cutaneous-lymphatic sporotrichosis patient after 72 hrs by modified NCCLS M38-A method
Sporothrix schenckii [6] = experiment: Antifungal activity against Sporothrix schenckii PSCC1 isolate from cutaneous-lymphatic sporotrichosis patient after 72 hrs by modified NCCLS M38-A method
Sporothrix schenckii [7] = experiment: Antifungal activity against Sporothrix schenckii PGAC0016 isolate from cutaneous-lymphatic sporotrichosis patient after 72 hrs by Sensititre YeastOne method
Sporothrix schenckii [8] = experiment: Antifungal activity against Sporothrix schenckii P26187 isolate from cutaneous-lymphatic sporotrichosis patient after 72 hrs by ATB Fungus 2 method
Sporothrix schenckii [9] = experiment: Antifungal activity against Sporothrix schenckii P14954 isolate from cutaneous-lymphatic sporotrichosis patient after 72 hrs by modified NCCLS M38-A method
Candida parapsilosis = experiment: Antifungal activity against Candida parapsilosis ATCC 22019 […] after 72 hrs by modified NCCLS M38-A method; settings: Lodderomyces parapsilosis, ATCC 22019, 72 h
Sporothrix schenckii [10] = experiment: Antifungal activity against Sporothrix schenckii P3287 isolate from cutaneous-lymphatic sporotrichosis patient after 72 hrs by ATB Fungus 2 method
Sporothrix schenckii [11] = experiment: Antifungal activity against Sporothrix schenckii P30019 isolate from cutaneous-lymphatic sporotrichosis patient after 72 hrs by ATB Fungus 2 method
Sporothrix schenckii [12] = experiment: Antifungal activity against Sporothrix schenckii P25013 isolate from cutaneous-lymphatic sporotrichosis patient after 72 hrs by Sensititre YeastOne method
Sporothrix schenckii [13] = experiment: Antifungal activity against Sporothrix schenckii PJRC002 isolate from cutaneous-lymphatic sporotrichosis patient after 72 hrs by Sensititre YeastOne method
Sporothrix schenckii [14] = experiment: Antifungal activity against Sporothrix schenckii P10012 isolate from cutaneous-lymphatic sporotrichosis patient after 72 hrs by ATB Fungus 2 method
Sporothrix schenckii [15] = experiment: Antifungal activity against Sporothrix schenckii SSA29 isolate from cutaneous-lymphatic sporotrichosis patient after 72 hrs by ATB Fungus 2 method
Sporothrix schenckii [16] = experiment: Antifungal activity against Sporothrix schenckii P0019 isolate from cutaneous-lymphatic sporotrichosis patient after 72 hrs by Sensititre YeastOne method
Sporothrix schenckii [17] = experiment: Antifungal activity against Sporothrix schenckii SSA29 isolate from cutaneous-lymphatic sporotrichosis patient after 72 hrs by Sensititre YeastOne method
Sporothrix schenckii [18] = experiment: Antifungal activity against Sporothrix schenckii MRSS4 isolate from cutaneous-lymphatic sporotrichosis patient after 72 hrs by Sensititre YeastOne method
Sporothrix schenckii [19] = experiment: Antifungal activity against Sporothrix schenckii P3287 isolate from cutaneous-lymphatic sporotrichosis patient after 72 hrs by modified NCCLS M38-A method
Sporothrix schenckii [20] = experiment: Antifungal activity against Sporothrix schenckii P10012 isolate from cutaneous-lymphatic sporotrichosis patient after 72 hrs by Sensititre YeastOne method
Sporothrix schenckii [21] = experiment: Antifungal activity against Sporothrix schenckii P1621 isolate from cutaneous-lymphatic sporotrichosis patient after 72 hrs by Sensititre YeastOne method
Sporothrix schenckii [22] = experiment: Antifungal activity against Sporothrix schenckii P3287 isolate from cutaneous-lymphatic sporotrichosis patient after 72 hrs by Sensititre YeastOne method
Sporothrix schenckii [23] = experiment: Antifungal activity against Sporothrix schenckii PGAC0016 isolate from cutaneous-lymphatic sporotrichosis patient after 72 hrs by ATB Fungus 2 method
Sporothrix schenckii [24] = experiment: Antifungal activity against Sporothrix schenckii P20825 isolate from cutaneous-lymphatic sporotrichosis patient after 72 hrs by modified NCCLS M38-A method
Sporothrix schenckii [25] = experiment: Antifungal activity against Sporothrix schenckii PSSA81 isolate from cutaneous-lymphatic sporotrichosis patient after 72 hrs by modified NCCLS M38-A method
Sporothrix schenckii [26] = experiment: Antifungal activity against Sporothrix schenckii P0019 isolate from cutaneous-lymphatic sporotrichosis patient after 72 hrs by modified NCCLS M38-A method
Sporothrix schenckii [27] = experiment: Antifungal activity against Sporothrix schenckii PSSA81 isolate from cutaneous-lymphatic sporotrichosis patient after 72 hrs by ATB Fungus 2 method
Sporothrix schenckii [28] = experiment: Antifungal activity against Sporothrix schenckii P14036 isolate from cutaneous-lymphatic sporotrichosis patient after 72 hrs by modified NCCLS M38-A method
Sporothrix schenckii [29] = experiment: Antifungal activity against Sporothrix schenckii isolate from cutaneous-lymphatic sporotrichosis patient after 72 hrs by ATB Fungus 2 method
Sporothrix schenckii [30] = experiment: Antifungal activity against Sporothrix schenckii P10012 isolate from cutaneous-lymphatic sporotrichosis patient after 72 hrs by modified NCCLS M38-A method
Sporothrix schenckii [31] = experiment: Antifungal activity against Sporothrix schenckii P25013 isolate from cutaneous-lymphatic sporotrichosis patient after 72 hrs by modified NCCLS M38-A method
Pichia kudriavzevii [32] = experiment: Antifungal activity against Candida krusei ATCC 6258 […] after 72 hrs by Sensititre YeastOne method; settings: ATCC 6258, 72 h
Sporothrix schenckii [33] = experiment: Antifungal activity against Sporothrix schenckii PJRC002 isolate from cutaneous-lymphatic sporotrichosis patient after 72 hrs by ATB Fungus 2 method
Sporothrix schenckii [34] = experiment: Antifungal activity against Sporothrix schenckii P24255 isolate from cutaneous-lymphatic sporotrichosis patient after 72 hrs by modified NCCLS M38-A method
Sporothrix schenckii [35] = experiment: Antifungal activity against Sporothrix schenckii P30915 isolate from cutaneous-lymphatic sporotrichosis patient after 72 hrs by ATB Fungus 2 method
Sporothrix schenckii [36] = experiment: Antifungal activity against Sporothrix schenckii P24255 isolate from cutaneous-lymphatic sporotrichosis patient after 72 hrs by ATB Fungus 2 method
Sporothrix schenckii [37] = experiment: Antifungal activity against Sporothrix schenckii P20825 isolate from cutaneous-lymphatic sporotrichosis patient after 72 hrs by Sensititre YeastOne method
Sporothrix schenckii [38] = experiment: Antifungal activity against Sporothrix schenckii P30915 isolate from cutaneous-lymphatic sporotrichosis patient after 72 hrs by Sensititre YeastOne method
Sporothrix schenckii [39] = experiment: Antifungal activity against Sporothrix schenckii P1621 isolate from cutaneous-lymphatic sporotrichosis patient after 72 hrs by ATB Fungus 2 method
Sporothrix schenckii [40] = experiment: Antifungal activity against Sporothrix schenckii P30915 isolate from cutaneous-lymphatic sporotrichosis patient after 72 hrs by modified NCCLS M38-A method
Sporothrix schenckii [41] = experiment: Antifungal activity against Sporothrix schenckii P30019 isolate from cutaneous-lymphatic sporotrichosis patient after 72 hrs by modified NCCLS M38-A method
Sporothrix schenckii [42] = experiment: Antifungal activity against Sporothrix schenckii PSCC1 isolate from cutaneous-lymphatic sporotrichosis patient after 72 hrs by ATB Fungus 2 method
Sporothrix schenckii [43] = experiment: Antifungal activity against Sporothrix schenckii P0019 isolate from cutaneous-lymphatic sporotrichosis patient after 72 hrs by ATB Fungus 2 method
Sporothrix schenckii [44] = experiment: Antifungal activity against Sporothrix schenckii PSSA81 isolate from cutaneous-lymphatic sporotrichosis patient after 72 hrs by Sensititre YeastOne method

OC(Cn1cncn1)(Cn1cncn1)c1ccc(F)cc1F [FLUCONAZOLE]
128 µg/mL: MIC (Sporothrix schenckii [12]) | MIC (Sporothrix schenckii [36]) | MIC (Sporothrix schenckii [44])
32 µg/mL: MIC (Pichia kudriavzevii [3])
> 256 µg/mL: MIC (Sporothrix schenckii [7]) | MIC (Sporothrix schenckii [13]) | MIC (Sporothrix schenckii [16]) | MIC (Sporothrix schenckii [17]) | MIC (Sporothrix schenckii [18]) | MIC (Sporothrix schenckii [20]) | MIC (Sporothrix schenckii [21]) | MIC (Sporothrix schenckii [22]) | MIC (Sporothrix schenckii [33]) | MIC (Sporothrix schenckii [38])
> 64 µg/mL: MIC (Sporothrix schenckii [2]) | MIC (Sporothrix schenckii [4]) | MIC (Sporothrix schenckii [5]) | MIC (Sporothrix schenckii [6]) | MIC (Sporothrix schenckii [9]) | MIC (Sporothrix schenckii [19]) | MIC (Sporothrix schenckii [24]) | MIC (Sporothrix schenckii [25]) | MIC (Sporothrix schenckii [26]) | MIC (Sporothrix schenckii [30]) | MIC (Sporothrix schenckii [31]) | MIC (Sporothrix schenckii [34]) | MIC (Sporothrix schenckii [40]) | MIC (Sporothrix schenckii [41])
1 µg/mL: MIC (Candida parapsilosis)
64 µg/mL: MIC (Pichia kudriavzevii [32])
256 µg/mL: MIC (Sporothrix schenckii [37])
> 128 µg/mL: MIC (Sporothrix schenckii [1]) | MIC (Sporothrix schenckii [8]) | MIC (Sporothrix schenckii [10]) | MIC (Sporothrix schenckii [11]) | MIC (Sporothrix schenckii [14]) | MIC (Sporothrix schenckii [15]) | MIC (Sporothrix schenckii [23]) | MIC (Sporothrix schenckii [27]) | MIC (Sporothrix schenckii [28]) | MIC50 (Sporothrix schenckii [29]) | MIC90 (Sporothrix schenckii [29]) | MIC (Sporothrix schenckii [35]) | MIC (Sporothrix schenckii [39]) | MIC (Sporothrix schenckii [42]) | MIC (Sporothrix schenckii [43])

CCC(C)n1ncn(-c2ccc(N3CCN(c4ccc(OCC5COC(Cn6cncn6)(c6ccc(Cl)cc6Cl)O5)cc4)CC3)cc2)c1=O (configuration not stated) [ITRACONAZOLE]
1 µg/mL: MIC (Sporothrix schenckii [1]) | MIC (Sporothrix schenckii [11]) | MIC (Sporothrix schenckii [27]) | MIC50 (Sporothrix schenckii [29]) | MIC (Pichia kudriavzevii [32]) | MIC (Sporothrix schenckii [33]) | MIC (Sporothrix schenckii [36]) | MIC (Sporothrix schenckii [42])
0.5 µg/mL: MIC (Sporothrix schenckii [2]) | MIC (Pichia kudriavzevii [3]) | MIC (Sporothrix schenckii [5]) | MIC (Sporothrix schenckii [9]) | MIC (Candida parapsilosis) | MIC (Sporothrix schenckii [15]) | MIC (Sporothrix schenckii [24]) | MIC (Sporothrix schenckii [25]) | MIC (Sporothrix schenckii [28]) | MIC (Sporothrix schenckii [30]) | MIC (Sporothrix schenckii [31]) | MIC (Sporothrix schenckii [34]) | MIC (Sporothrix schenckii [38]) | MIC (Sporothrix schenckii [40]) | MIC (Sporothrix schenckii [41])
0.25 µg/mL: MIC (Sporothrix schenckii [4]) | MIC (Sporothrix schenckii [6]) | MIC (Sporothrix schenckii [12]) | MIC (Sporothrix schenckii [17]) | MIC (Sporothrix schenckii [18]) | MIC (Sporothrix schenckii [19]) | MIC (Sporothrix schenckii [20]) | MIC (Sporothrix schenckii [21]) | MIC (Sporothrix schenckii [22]) | MIC (Sporothrix schenckii [26])
2 µg/mL: MIC (Sporothrix schenckii [8]) | MIC (Sporothrix schenckii [10]) | MIC (Sporothrix schenckii [14]) | MIC (Sporothrix schenckii [23]) | MIC90 (Sporothrix schenckii [29]) | MIC (Sporothrix schenckii [35]) | MIC (Sporothrix schenckii [39]) | MIC (Sporothrix schenckii [43])
0.06 µg/mL: MIC (Sporothrix schenckii [44])
0.13 µg/mL: MIC (Sporothrix schenckii [7]) | MIC (Sporothrix schenckii [13]) | MIC (Sporothrix schenckii [16]) | MIC (Sporothrix schenckii [37])
